Assay [1] has as its target T1, FGFR3 (Homo sapiens, UniProt P22607).
T1 construct: purchased Upstate
Put plainly: FGFR3 in vitro kinase inhibitory activity assay (TRF). To be noted: 8 μM ATP, 3 hours; read-out: FGFR3 IC50(μM) or % I. The format is biochemical. The protocol: (§1) FGFR3, VEGFR2 and PDGFR in vitro Kinase Inhibitory Activity Assays
(§2) Enzymes (from Upstate), prepared at 2× final concentration, were incubated with test compounds, biotinylated Flt3 substrate (biotin-VASSDNEYFYVDF) (Cell Signalling Technology Inc.) and ATP in the appropriate assay buffer (Table 1). The reaction was allowed to proceed for 3 hours (FGFR3), 1 hour (VEGFR2, PDGFR-beta) at room temperature on a plate shaker at 700 rpm before being stopped with 35 mM EDTA, pH 8 (FGFR3, VEGFR2) or 55 mM EDTA, pH 8 (PDGFR-beta). 5× detection mix (50 mM HEPES pH 7.5, 0.1% BSA, 11.34 nM Eu-anti-pY (PY20) (PerkinElmer) 74 nM SA-XL665 (Cisbio) for FGFR3, 50 mM HEPES, pH 7.5, 0.1% BSA, 11.34 nM Eu-anti-pY (PY20), 187.5 nM SA-XL665 for VEGFR2 and 50 mM HEPES, pH 7.5, 0.1% BSA, 11.34 nM Eu-anti-pY (PT66) (PerkinElmer), 375 nM SA-XL665 (Cisbio) for PDGFR-beta) was then added to each well and the plate sealed and incubated at room temperature for one hour on a plate shaker at 700 rpm. The plate was then read on a Packard Fusion plate reader or a BMG Pherastar both in TRF mode.

For assay [2], the target named is T2, VEGFR2 (Homo sapiens, UniProt P35968).
T2 construct: purchased Upstate
T2 sequence (P35968 20-1356): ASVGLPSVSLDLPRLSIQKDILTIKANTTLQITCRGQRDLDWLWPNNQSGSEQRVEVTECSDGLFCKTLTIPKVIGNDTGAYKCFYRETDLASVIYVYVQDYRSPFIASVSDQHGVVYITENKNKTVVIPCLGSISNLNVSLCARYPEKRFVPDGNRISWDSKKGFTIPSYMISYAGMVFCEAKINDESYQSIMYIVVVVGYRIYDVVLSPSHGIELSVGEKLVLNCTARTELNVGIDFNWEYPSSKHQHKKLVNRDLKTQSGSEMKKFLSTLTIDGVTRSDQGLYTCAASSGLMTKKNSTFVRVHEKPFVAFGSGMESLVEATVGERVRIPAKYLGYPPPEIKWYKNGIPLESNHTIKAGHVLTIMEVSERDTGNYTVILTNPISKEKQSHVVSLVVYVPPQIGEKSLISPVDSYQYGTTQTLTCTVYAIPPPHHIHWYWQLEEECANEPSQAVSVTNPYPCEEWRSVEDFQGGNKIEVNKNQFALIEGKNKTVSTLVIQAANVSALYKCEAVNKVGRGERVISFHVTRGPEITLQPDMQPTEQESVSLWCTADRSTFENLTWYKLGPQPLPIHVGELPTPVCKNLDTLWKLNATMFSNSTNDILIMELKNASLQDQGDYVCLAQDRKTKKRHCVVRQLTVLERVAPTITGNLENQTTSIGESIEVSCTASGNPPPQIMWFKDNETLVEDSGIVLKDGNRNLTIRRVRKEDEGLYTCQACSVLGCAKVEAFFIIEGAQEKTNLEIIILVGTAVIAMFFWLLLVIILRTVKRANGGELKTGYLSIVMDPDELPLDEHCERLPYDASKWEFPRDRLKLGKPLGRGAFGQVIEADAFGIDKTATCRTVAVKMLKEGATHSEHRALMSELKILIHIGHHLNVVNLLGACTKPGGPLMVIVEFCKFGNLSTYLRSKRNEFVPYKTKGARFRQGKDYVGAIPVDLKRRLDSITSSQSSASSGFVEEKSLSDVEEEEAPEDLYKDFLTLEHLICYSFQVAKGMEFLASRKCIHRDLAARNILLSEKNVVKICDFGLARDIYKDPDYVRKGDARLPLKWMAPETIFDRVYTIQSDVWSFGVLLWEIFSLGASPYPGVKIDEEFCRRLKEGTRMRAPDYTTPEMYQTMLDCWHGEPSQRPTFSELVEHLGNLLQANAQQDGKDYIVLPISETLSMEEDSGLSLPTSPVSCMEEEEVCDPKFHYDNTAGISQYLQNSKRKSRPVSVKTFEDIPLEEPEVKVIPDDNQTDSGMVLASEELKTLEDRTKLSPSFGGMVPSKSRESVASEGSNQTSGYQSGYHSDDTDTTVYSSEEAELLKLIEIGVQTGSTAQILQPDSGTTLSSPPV
The assay can be described thus: VEGFR2 in vitro kinase inhibitory activity assay (TRF). The format is biochemical. The settings on record: 0.5 μM ATP, 1 hour; read-out: VEGFR2 IC50(μM) or % I. How it is done:
as §1, §2

Assay [3] has as its system parental wild-type Ba/F3 cells. Put plainly: Ba/F3 (WT) cell proliferation assay (Alamar Blue). To be noted: BaF3, 72 hours, read-out: BaF3 WT prolif; for inhibition at 10 µM / inhibition at 3 µM: Mus musculus; for IC50: with mouse IL-3. The format is cell-based. The protocol: (§3) Ba/F3-TEL-FGFR3 & Ba/F3 (WT) Cell Proliferation Assays
(§4) Stably transfected Ba/F3-TEL-FGFR3 cells were plated out into black 96-well tissue culture plates with clear bottoms in RPMI medium containing 10% FBS and 0.25 mg/ml G418 at a density of 5×10^3 cells/well (200 μl per well). The parental wild-type Ba/F3 cells (DSMZ no.: ACC 300) were plated out into black 96-well tissue culture plates with clear bottoms in RPMI medium containing 10% FBS and 2 ng/ml mouse IL-3 (R&D Systems) at a density of 2.5×10^3 cells/well (200 μl per well). Plates were placed in an incubator overnight before adding the compounds the following day. Dilutions of compounds were made in DMSO starting at 10 mM and were diluted into the wells to give a final DMSO concentration of 0.1% in assay. Compounds were left on the cells for 72 hours before the plates were removed from the incubator and 20 μl of Alamar Blue™ (Biosource) was added to each well. Plates were placed in the incubator for 4-6 hours before reading plates at 535 nm (excitation)/590 nm (emission) on a Fusion plate reader (Packard). Where inhibition is high an IC50 can be determined.
In general terms: Resazurin is reduced to fluorescent resorufin, in cell work by metabolically active cells.

Assay [4] concerns the target T3, Ba/F3-TEL-FGFR3 cells (Homo sapiens, UniProt P22607).
T3 construct: fused on or other part: P41212 (Transcription factor ETV6)
The assay can be described thus: Ba/F3-TEL-FGFR3 cell proliferation assay (Alamar Blue). To be noted: 72 hours; for BaF3-TEL-FGFR3 prolif (μM): % at 10.0 μM; for GI50: read-out: BaF3-TEL-FGFR3 prolif. The format is cell-based. The protocol:
as §3, §4

The results in this text go back to US8481531B2, “Bicyclic heterocyclyl derivatives as FGFR kinase inhibitors for therapeutic use” (Astex Therapeutics Ltd, priority 2009, dated 2013).

T1 sequence (P22607 23-806): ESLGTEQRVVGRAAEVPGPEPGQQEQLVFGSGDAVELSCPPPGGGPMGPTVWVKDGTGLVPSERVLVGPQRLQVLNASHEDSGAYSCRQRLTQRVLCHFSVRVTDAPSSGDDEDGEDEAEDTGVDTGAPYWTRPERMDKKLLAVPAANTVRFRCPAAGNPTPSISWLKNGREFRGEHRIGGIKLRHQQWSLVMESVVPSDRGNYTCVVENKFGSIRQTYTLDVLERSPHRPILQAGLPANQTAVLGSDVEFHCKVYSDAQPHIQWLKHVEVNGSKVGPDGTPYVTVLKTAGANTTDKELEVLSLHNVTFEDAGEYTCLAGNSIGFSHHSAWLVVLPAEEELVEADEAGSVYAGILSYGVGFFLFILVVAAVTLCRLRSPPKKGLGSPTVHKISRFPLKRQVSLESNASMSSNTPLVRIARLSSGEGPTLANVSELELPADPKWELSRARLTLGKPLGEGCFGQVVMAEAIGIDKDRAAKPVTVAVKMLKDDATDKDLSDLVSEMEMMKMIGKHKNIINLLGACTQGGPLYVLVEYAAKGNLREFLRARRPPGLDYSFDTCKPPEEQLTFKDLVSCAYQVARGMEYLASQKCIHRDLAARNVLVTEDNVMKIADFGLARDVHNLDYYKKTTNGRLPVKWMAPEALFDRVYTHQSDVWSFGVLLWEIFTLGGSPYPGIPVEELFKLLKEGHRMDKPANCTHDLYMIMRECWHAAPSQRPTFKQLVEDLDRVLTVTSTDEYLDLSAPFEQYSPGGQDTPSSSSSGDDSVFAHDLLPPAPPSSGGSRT
T3 sequence (P22607 whole entry, change not shown, the tested form may be a part): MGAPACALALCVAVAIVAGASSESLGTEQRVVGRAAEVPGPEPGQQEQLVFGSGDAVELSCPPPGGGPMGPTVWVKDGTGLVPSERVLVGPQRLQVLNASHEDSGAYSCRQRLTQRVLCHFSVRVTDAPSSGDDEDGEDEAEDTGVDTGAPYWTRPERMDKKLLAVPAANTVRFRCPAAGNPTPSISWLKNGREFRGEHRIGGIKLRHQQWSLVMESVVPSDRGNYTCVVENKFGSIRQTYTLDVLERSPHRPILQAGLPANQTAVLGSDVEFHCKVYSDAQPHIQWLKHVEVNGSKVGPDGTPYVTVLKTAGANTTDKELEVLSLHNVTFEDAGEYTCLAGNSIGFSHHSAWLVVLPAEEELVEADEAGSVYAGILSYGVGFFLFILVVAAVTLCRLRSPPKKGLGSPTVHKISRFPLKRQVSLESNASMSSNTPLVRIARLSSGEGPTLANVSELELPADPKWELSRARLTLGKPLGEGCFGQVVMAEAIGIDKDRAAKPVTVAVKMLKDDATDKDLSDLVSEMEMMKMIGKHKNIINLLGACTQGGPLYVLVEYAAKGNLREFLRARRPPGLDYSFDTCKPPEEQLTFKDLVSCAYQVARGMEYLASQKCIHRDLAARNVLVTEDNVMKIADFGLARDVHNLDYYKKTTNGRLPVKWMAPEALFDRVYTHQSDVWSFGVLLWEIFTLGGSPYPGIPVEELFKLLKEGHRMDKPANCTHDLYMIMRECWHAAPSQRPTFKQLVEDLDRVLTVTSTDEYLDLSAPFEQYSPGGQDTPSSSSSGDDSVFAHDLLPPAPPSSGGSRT

`CN1CCC(NCCCON=Cc2ccn3c(-c4cccc(NC(=O)NCC(F)(F)F)c4)cnc3c2)CC1` [Compound 1-34, 1-[3-(7-{[3-(1-Methyl-piperidin-4-ylamino)-propoxyimino]-methyl}-imidazo[1,2-a]pyridin-3-yl)-phenyl]-3-(2,2,2-trifluoro-ethyl)-urea]: the IC50 was 0.038 µM in assay [1] and 0.26 µM in assay [2]. The inhibition at 10 µM in assay [3] came out at 0%. In addition, the “BaF3-TEL-FGFR3 prolif (μM)” value in assay [4] turned out to be 60.0% at.
In the case of `O=C(NCC(F)(F)F)Nc1cccc(-c2cnc3cc(C=NOCCCN4CCCC4)ccn23)c1` [Compound 1-35, 1-(3-{7-[(3-Pyrrolidin-1-yl-propoxyimino)-methyl]-imidazo[1,2-a]pyridin-3-yl}-phenyl)-3-(2,2,2-trifluoro-ethyl)-urea], the IC50 is 0.023 µM in assay [1] and 0.33 µM in assay [2]. Also, in assay [3], the inhibition at 3 µM was found to be 28%. Moreover, the GI50 in assay [4] is 560 nM.
For `COC1CCN(CCCON=Cc2ccn3c(-c4cccc(NC(=O)NCC(F)(F)F)c4)cnc3c2)CC1` [Compound 1-36, 1-[3-(7-{[3-(4-Methoxy-piperidin-1-yl)-propoxyimino]-methyl}-imidazo[1,2-a]pyridin-3-yl)-phenyl]-3-(2,2,2-trifluoro-ethyl)-urea], in that order: 0.024 µM, 0.36 µM, 34% and 380 nM.
Consider `O=C(NCC(F)(F)F)Nc1cccc(-c2cnc3cc(C=NOCCCNC4CCOCC4)ccn23)c1` [Compound 1-37, 1-[3-(7-{[3-(Tetrahydro-pyran-4-ylamino)-propoxyimino]-methyl}-imidazo[1,2-a]pyridin-3-yl)-phenyl]-3-(2,2,2-trifluoro-ethyl)-urea], for which the figures for the IC50 in assay [1] and in assay [2] were 0.028 µM and 0.27 µM, respectively. The inhibition at 10 µM in assay [3] is 43%. Besides, in assay [4], the GI50 was 3500 nM.
The matching figures for `O=C(NCC(F)(F)F)Nc1cccc(-c2cnc3cc(C=NOCCCN4CCC(O)C4)ccn23)c1` (stereo not shown) [Compound 1-38, 1-[3-(7-{[3-(3-Hydroxy-pyrrolidin-1-yl)-propoxyimino]-methyl}-imidazo[1,2-a]pyridin-3-yl)-phenyl]-3-(2,2,2-trifluoro-ethyl)-urea]: 0.026 µM, 0.39 µM, 21% and 1800 nM.
On to `O=C(NCC(F)(F)F)Nc1cccc(-c2cnc3cc(C=NOCCCN4CCN(CCO)CC4)ccn23)c1` [Compound 1-39, 1-{3-[7-({3-[4-(2-Hydroxy-ethyl)-piperazin-1-yl]-propoxyimino}-methyl)-imidazo[1,2-a]pyridin-3-yl]-phenyl}-3-(2,2,2-trifluoro-ethyl)-urea], for which the IC50 in assay [1] was determined as 0.025 µM; in assay [2] it was 0.39 µM. The inhibition at 3 µM in assay [3] is 47%. Also, the GI50 in assay [4] is 1300 nM.
Take `COCCN(CCON=Cc1ccn2c(-c3cccc(NC(=O)NCC(F)(F)F)c3)cnc2c1)Cc1ccccc1` [Compound 1-41, 1-{3-[7-({2-[Benzyl-(2-methoxy-ethyl)-amino]-ethoxyimino}-methyl)-imidazo[1,2-a]pyridin-3-yl]-phenyl}-3-(2,2,2-trifluoro-ethyl)-urea]: the IC50 in assay [1] was found to be 0.0551 µM; in assay [2], 1.79 µM; in assay [3], 5900 nM. Also, in assay [4], the GI50 turned out to be 860 nM.
On to `CN(CCON=Cc1ccn2c(-c3cccc(NC(=O)NCC(F)(F)F)c3)cnc2c1)CCS(C)(=O)=O` [Compound 1-42, 1-{3-[7-({2-[(2-Methanesulfonyl-ethyl)-methyl-amino]-ethoxyimino}-methyl)-imidazo[1,2-a]pyridin-3-yl]-phenyl}-3-(2,2,2-trifluoro-ethyl)-urea], for which the IC50 in assay [1] was found to be 0.017 µM; in assay [2], 0.54 µM. In assay [3], the inhibition at 10 µM turned out to be 10%. Also, in assay [4], the GI50 was 1300 nM.
As for `O=C(NCC(F)(F)F)Nc1cccc(-c2cnc3cc(C=NOCC(O)CN4CCC(O)CC4)ccn23)c1` (stereo not shown) [Compound 1-43, 1-[3-(7-{[2-Hydroxy-3-(4-hydroxy-piperidin-1-yl)-propoxyimino]-methyl}-imidazo[1,2-a]pyridin-3-yl)-phenyl]-3-(2,2,2-trifluoro-ethyl)-urea], the IC50 in assay [1] is 0.024 µM; in assay [2], 0.52 µM. Moreover, the inhibition at 10 µM in assay [3] stood at 0%. Besides, in assay [4], the GI50 stood at 6600 nM.
As for `COCCO/N=C(\C)c1ccn2c(-c3cccc(NC(=O)NCC(F)(F)F)c3)cnc2c1` [Compound 1-45, 1-[3-(7-{1-[2-Methoxy-ethoxyimino]-ethyl}-imidazo[1,2-a]pyridin-3-yl)-phenyl]-3-(2,2,2-trifluoro-ethyl)-urea], the values for the IC50 in assay [1], in assay [2] and in assay [3] were 0.0041 µM, 0.068 µM and 4000 nM, respectively. For the same compound, the GI50 in assay [4] is 48 nM.
For `C/C(=N\OCCOCCO)c1ccn2c(-c3cccc(NC(=O)NCC(F)(F)F)c3)cnc2c1` [Compound 1-46, 1-[3-(7-{1-[2-(2-Hydroxy-ethoxy)-ethoxyimino]-ethyl}-imidazo[1,2-a]pyridin-3-yl)-phenyl]-3-(2,2,2-trifluoro-ethyl)-urea], the figures for the IC50 in assay [1] and in assay [2] were 0.0031 µM and 0.068 µM, respectively. Also, the inhibition at 10 µM in assay [3] turned out to be 39%. Moreover, the GI50 in assay [4] was determined as 32 nM.
Consider `C/C(=N\OCCCO)c1ccn2c(-c3cccc(NC(=O)NCC(F)(F)F)c3)cnc2c1` [Compound 1-47, 1-[3-(7-{1-[3-Hydroxy-propoxyimino]-ethyl}-imidazo[1,2-a]pyridin-3-yl)-phenyl]-3-(2,2,2-trifluoro-ethyl)-urea], for which the IC50 in assay [1] came to 0.0023 µM; in assay [2], 0.051 µM. Besides, in assay [3], the inhibition at 10 µM is 63%. For the same compound, the “BaF3-TEL-FGFR3 prolif (μM)” value in assay [4] is reported as 0.000% at.
As to `COCCN1CCC(CCON=Cc2ccn3c(-c4cccc(NC(=O)NCC(F)(F)F)c4)cnc3c2)CC1` [Compound 1-48, 1-{3-[7-({2-[1-(2-Methoxy-ethyl)-piperidin-4-yl]-ethoxyimino}-methyl)-imidazo[1,2-a]pyridin-3-yl]-phenyl}-3-(2,2,2-trifluoro-ethyl)-urea], the IC50 in assay [1] worked out at 0.023 µM; in assay [2], 0.4 µM; in assay [3] it was 1800 nM. Moreover, in assay [4], the GI50 was 600 nM.
As for `O=C(NCC(F)(F)F)Nc1cccc(-c2cnc3cc(C=NOCCC4CCN(CCO)CC4)ccn23)c1` [Compound 1-49, 1-{3-[7-({2-[1-(2-Hydroxy-ethyl)-piperidin-4-yl]-ethoxyimino}-methyl)-imidazo[1,2-a]pyridin-3-yl]-phenyl}-3-(2,2,2-trifluoro-ethyl)-urea], the IC50 is 0.019 µM in assay [1] and 0.33 µM in assay [2]. The inhibition at 3 µM in assay [3] amounted to 36%. Moreover, in assay [4], the GI50 was 1400 nM.
Take `O=C(NCC(F)(F)F)Nc1cccc(-c2cnc3cc(C(=NO)C4CC4)ccn23)c1` [Compound 1-50, 1-[3-(7-{Cyclopropyl-hydroxyimino-methyl}-imidazo[1,2-a]pyridin-3-yl)-phenyl]-3-(2,2,2-trifluoro-ethyl)-urea]: the values for the IC50 in assay [1] and in assay [2] were 0.0097 µM and 0.23 µM, respectively. Besides, the inhibition at 10 µM in assay [3] came to 62%. Moreover, the GI50 in assay [4] is 300 nM.
For `CN1CCN(C(=O)CCON=Cc2ccn3c(-c4cccc(NC(=O)NCC(F)(F)F)c4)cnc3c2)CC1` [Compound 1-51, 1-[3-(7-{[3-(4-Methyl-piperazin-1-yl)-3-oxo-propoxyimino]-methyl}-imidazo[1,2-a]pyridin-3-yl)-phenyl]-3-(2,2,2-trifluoro-ethyl)-urea], in that order: 0.033 µM, 0.88 µM, 27% and 2200 nM.
